The results in this text go back to BindingDB's records for doi:10.1021/jm970021c (Warner-Lambert, 1997).

The experiment in a line: Agonist activation of human dopamine receptor stimulating mitogenesis in Dopamine receptor D4-transfected CHO pro-5 cells using [3H]thymidine as radioligand.
One may read the EC50 as the midpoint of the concentration-response curve. Higher therefore signals a need for much substance. `N#Cc1ccccc1N1CCN(CNC(=O)c2cccc(Cl)c2)CC1` [3-Chloro-N-[4-(2-cyano-phenyl)-piperazin-1-ylmethyl]-benzamide] yielded an EC50 of 5.3 nM. To `COc1ccccc1N1CCN(CNC(=O)c2cccc(Cl)c2)CC1` [3-Chloro-N-[4-(2-methoxy-phenyl)-piperazin-1-ylmethyl]-benzamide] belongs 15 nM.

Take `O=C(NCN1CCN(c2ccccc2Cl)CC1)c1ccc(Cl)cc1` [4-Chloro-N-[4-(2-chloro-phenyl)-piperazin-1-ylmethyl]-benzamide]: a half-maximal effect (EC50) was put at 8.4 nM. This EC50 is about 1.8-fold lower than that of the molecule before.

With `N#Cc1ccccc1N1CCN(CNC(=O)c2ccc(Cl)cc2)CC1` [4-Chloro-N-[4-(2-cyano-phenyl)-piperazin-1-ylmethyl]-benzamide], the half-maximal effective concentration (EC50) is above 3.9 nM.

In turn, `COc1ccccc1N1CCN(CNC(=O)c2ccc(Cl)cc2)CC1` [4-Chloro-N-[4-(2-methoxy-phenyl)-piperazin-1-ylmethyl]-benzamide] had an EC50 of 8.4 nM. To `Cc1cccc(C(=O)NCN2CCN(c3ccccc3Cl)CC2)c1` [N-[4-(2-Chloro-phenyl)-piperazin-1-ylmethyl]-3-methyl-benzamide] belongs 16 nM. On to `Cc1ccc(C(=O)NCN2CCN(c3ccccc3Cl)CC2)cc1` [N-[4-(2-Chloro-phenyl)-piperazin-1-ylmethyl]-4-methyl-benzamide], for which a half-maximal effect (EC50) was put at 218 nM. Next, `O=C(NCN1CCN(c2ccccc2Cl)CC1)c1ccccc1` [N-[4-(2-Chloro-phenyl)-piperazin-1-ylmethyl]-benzamide]: 106 nM; `Cc1ccc(C(=O)NCN2CCN(c3ccccc3C#N)CC2)cc1` [N-[4-(2-Cyano-phenyl)-piperazin-1-ylmethyl]-4-methyl-benzamide]: 1.2 nM; `N#Cc1ccccc1N1CCN(CNC(=O)c2ccccc2)CC1` [N-[4-(2-Cyano-phenyl)-piperazin-1-ylmethyl]-benzamide]: 24 nM.

`COc1ccccc1N1CCN(CNC(=O)c2cccc(C)c2)CC1` [N-[4-(2-Methoxy-phenyl)-piperazin-1-ylmethyl]-3-methyl-benzamide] displayed an EC50 of 13 nM. `COc1ccccc1N1CCN(CNC(=O)c2ccc(C)cc2)CC1` [N-[4-(2-Methoxy-phenyl)-piperazin-1-ylmethyl]-4-methyl-benzamide] showed an EC50 of 3.4 nM. For the molecule `COc1ccccc1N1CCN(CNC(=O)c2ccccc2)CC1` [N-[4-(2-Methoxy-phenyl)-piperazin-1-ylmethyl]-benzamide], the EC50 is 31 nM. This EC50 is about 9.1-fold higher than that of the molecule before.
